Target: human lung tryptase
Assay: β-Tryptase In-Vitro Enzyme Assay
Type: biochemical
Conditions: human lung tryptase 1 nM, substrate H-D-HHT-Ala-Arg-pNa 500 μM, pH 7.4, room temperature
Protocol: The β-tryptase assay was conducted with human lung tryptase (Cortex Biochem #CP3033) in an aqueous buffer (10 mM Tris, 10 mM Hepes, 150 mM NaCl, 0.1% PEG 8000, pH 7.4) using the chromogenic substrate H-D-HHT-Ala-Arg-pNa. […] Percent inhibition was calculated by comparing the initial reaction velocity of samples without inhibitor to those with inhibitor. The initial reaction velocities were analyzed using Microsoft Excel.

Row | Compound | IC50
1 | CN(C)c1cccc(C(=O)N2CCC3(CC2)COc2ccc(CN)cc23)c1 [Cpd 56, 1-(3-dimethylamino-phenyl)carbonyl-5′-aminomethyl-spiro[piperidine-4,3′-(2H)-benzo[b]furan]] | 190 nM
2 | CSc1cccc(C(=O)N2CCC3(CC2)COc2ccc(CN)cc23)c1 [Cpd 57, 1-(3-methylthio-phenyl)carbonyl-5′-aminomethyl-spiro[piperidine-4,3′-(2H)-benzo[b]furan]] | 180 nM
3 | COC(=O)c1ccc(C(=O)N2CCC3(CC2)COc2ccc(CN)cc23)cc1 [Cpd 58, 1-(4-methoxycarbonyl-phenyl)carbonyl-5′-aminomethyl-spiro[piperidine-4,3′-(2H)-benzo[b]furan]] | 710 nM
4 | NCc1ccc2c(c1)C1(CCN(C(=O)c3ccc(Br)cc3)CC1)CO2 [Cpd 59, 1-(4-bromo-phenyl)carbonyl-5′-aminomethyl-spiro[piperidine-4,3′-(2H)-benzo[b]furan]] | 360 nM
5 | NCc1ccc2c(c1)C1(CCN(C(=O)c3cccc(OC(F)(F)F)c3)CC1)CO2 [Cpd 60, 1-(3-trifluoromethoxy-phenyl)carbonyl-5′-aminomethyl-spiro[piperidine-4,3′-(2H)-benzo[b]furan]] | 2100 nM
6 | NCc1ccc2c(c1)C1(CCN(C(=O)c3ccc(OC(F)(F)F)cc3)CC1)CO2 [Cpd 61, 1-(4-trifluoromethoxy-phenyl)carbonyl-5′-aminomethyl-spiro[piperidine-4,3′-(2H)-benzo[b]furan]] | 7500 nM
7 | NCc1ccc2c(c1)C1(CCN(C(=O)c3ccc(Oc4ccccc4)cc3)CC1)CO2 [Cpd 62, 1-(4-phenoxy-phenyl)carbonyl-5′-aminomethyl-spiro[piperidine-4,3′-(2H)-benzo[b]furan]] | 800 nM
8 | NCc1ccc2c(c1)C1(CCN(C(=O)c3cccc(SC(F)(F)F)c3)CC1)CO2 [Cpd 63, 1-(3-trifluoromethylthio-phenyl)carbonyl-5′-aminomethyl-spiro[piperidine-4,3′-(2H)-benzo[b]furan]] | 41 nM
9 | COc1ccc(-c2cccc(C(=O)N3CCC4(CC3)COc3ccc(CN)cc34)c2)cc1 [Cpd 64, 1-[3-(4-methoxy-phenyl)-phenyl]carbonyl-5′-aminomethyl-spiro[piperidine-4,3′-(2H)-benzo[b]furan]] | 95 nM
10 | N#Cc1cccc(C(=O)N2CCC3(CC2)COc2ccc(CN)cc23)c1 [Cpd 66, 1-(3-cyano-phenyl)carbonyl-5′-aminomethyl-spiro[piperidine-4,3′-(2H)-benzo[b]furan]] | 1900 nM
11 | CC(=O)c1ccc(C(=O)N2CCC3(CC2)COc2ccc(CN)cc23)cc1 [Cpd 67, 1-(4-methylcarbonyl-phenyl)carbonyl-5′-aminomethyl-spiro[piperidine-4,3′-(2H)-benzo[b]furan]] | 4800 nM
12 | NCc1ccc2c(c1)C1(CCN(C(=O)c3ccc4c(c3)OCO4)CC1)CO2 [Cpd 68, 1-benzodioxol-5-ylcarbonyl-5′-aminomethyl-spiro[piperidine-4,3′-(2H)-benzo[b]furan]] | 190 nM
13 | NCc1ccc2c(c1)C1(CCN(C(=O)c3ccc(CCl)cc3)CC1)CO2 [Cpd 69, 1-(4-chloromethyl-phenyl)carbonyl-5′-aminomethyl-spiro[piperidine-4,3′-(2H)-benzo[b]furan]] | 1600 nM
14 | NCc1ccc2c(c1)C1(CCN(C(=O)c3ccc4ccccc4c3)CC1)CO2 [Cpd 70, 1-naphthalen-2-ylcarbonyl-5′-aminomethyl-spiro[piperidine-4,3′-(2H)-benzo[b]furan]] | 150 nM
15 | NCc1ccc2c(c1)C1(CCN(C(=O)c3ccc(C(F)(F)F)cc3)CC1)CO2 [Cpd 71, 1-(4-trifluoromethyl-phenyl)carbonyl-5′-aminomethyl-spiro[piperidine-4,3′-(2H)-benzo[b]furan]] | 910 nM
16 | CS(=O)(=O)c1cccc(C(=O)N2CCC3(CC2)COc2ccc(CN)cc23)c1 [Cpd 72, 1-(3-methylsulfonyl-phenyl)carbonyl-5′-aminomethyl-spiro[piperidine-4,3′-(2H)-benzo[b]furan]] | 520 nM
17 | NCc1ccc2c(c1)C1(CCN(C(=O)c3ccc(C4CCCCC4)cc3)CC1)CO2 [Cpd 73, 1-(4-cyclohexyl-phenyl)carbonyl-5′-aminomethyl-spiro[piperidine-4,3′-(2H)-benzo[b]furan]] | 2500 nM
18 | NCc1ccc2c(c1)C1(CCN(C(=O)c3ccc(F)c(C(F)(F)F)c3)CC1)CO2 [Cpd 74, 1-(3-trifluoromethyl-4-fluoro-phenyl)carbonyl-5′-aminomethyl-spiro[piperidine-4,3′-(2H)-benzo[b]furan]] | 160 nM
19 | NCc1ccc2c(c1)C1(CCN(C(=O)c3ccc(Cc4ccccc4)cc3)CC1)CO2 [Cpd 75, 1-(4-benzyl-phenyl)carbonyl-5′-aminomethyl-spiro[piperidine-4,3′-(2H)-benzo[b]furan]] | 470 nM
20 | NCc1ccc2c(c1)C1(CCN(C(=O)c3ccc(OCc4ccccc4)cc3)CC1)CO2 [Cpd 76, 1-(4-benzyloxy-phenyl)carbonyl-5′-aminomethyl-spiro[piperidine-4,3′-(2H)-benzo[b]furan]] | 420 nM

Row | Compound | IC50
21 | NCc1ccc2c(c1)C1(CCN(C(=O)c3ccc(/C=C\c4ccccc4)o3)CC1)CO2 [Cpd 77, (Z)-1-(5-phenylethenyl-furan-2-yl)carbonyl-5′-aminomethyl-spiro[piperidine-4,3′-(2H)-benzo[b]furan]] | 100 nM
22 | NCc1ccc2c(c1)C1(CCN(C(=O)Cc3ccccc3)CC1)CO2 [Cpd 78, 1-benzylcarbonyl-5′-aminomethyl-spiro[piperidine-4,3′-(2H)-benzo[b]furan]] | 1400 nM
23 | NCc1ccc2c(c1)C1(CCN(C(=O)CCc3ccccc3)CC1)CO2 [Cpd 79, 1-phenethylcarbonyl-5′-aminomethyl-spiro[piperidine-4,3′-(2H)-benzo[b]furan]] | 1400 nM
24 | NCc1ccc2c(c1)C1(CCN(C(=O)Cc3cccc(F)c3)CC1)CO2 [Cpd 80, 1-(3-fluoro-benzyl)carbonyl-5′-aminomethyl-spiro[piperidine-4,3′-(2H)-benzo[b]furan]] | 2700 nM
25 | NCc1ccc2c(c1)C1(CCN(C(=O)Cc3cccc(Cl)c3)CC1)CO2 [Cpd 81, 1-(3-chloro-benzyl)carbonyl-5′-aminomethyl-spiro[piperidine-4,3′-(2H)-benzo[b]furan]] | 2300 nM
26 | NCc1ccc2c(c1)C1(CCN(C(=O)Cc3ccc(F)c(F)c3)CC1)CO2 [Cpd 82, 1-(3,4-difluoro-benzyl)carbonyl-5′-aminomethyl-spiro[piperidine-4,3′-(2H)-benzo[b]furan]] | 1300 nM
27 | NCc1ccc2c(c1)C1(CCN(C(=O)CCc3cccc(Cl)c3)CC1)CO2 [Cpd 83, 1-(3-chloro-phenethyl)carbonyl-5′-aminomethyl-spiro[piperidine-4,3′-(2H)-benzo[b]furan]] | 4300 nM
28 | NCc1ccc2c(c1)C1(CCN(C(=O)Cc3ccc4ccccc4c3)CC1)CO2 [Cpd 84, 1-naphthalen-2-ylmethylcarbonyl-5′-aminomethyl-spiro[piperidine-4,3′-(2H)-benzo[b]furan]] | 1400 nM
29 | NCc1ccc2c(c1)C1(CCN(C(=O)Cc3cccc(C(F)(F)F)c3)CC1)CO2 [Cpd 85, 1-(3-trifluoromethyl-benzyl)carbonyl-5′-aminomethyl-spiro[piperidine-4,3′-(2H)-benzo[b]furan]] | 2700 nM
30 | NCc1ccc2c(c1)C1(CCN(C(=O)Cc3ccc(Cl)c(Cl)c3)CC1)CO2 [Cpd 86, 1-(3,4-dichloro-benzyl)carbonyl-5′-aminomethyl-spiro[piperidine-4,3′-(2H)-benzo[b]furan]] | 620 nM
31 | NCc1ccc2c(c1)C1(CCN(C(=O)Cc3cccc(Br)c3)CC1)CO2 [Cpd 87, 1-(3-bromo-benzyl)carbonyl-5′-aminomethyl-spiro[piperidine-4,3′-(2H)-benzo[b]furan]] | 1700 nM
32 | NCc1ccc2c(c1)C1(CCN(C(=O)Cc3cccc(Oc4ccccc4)c3)CC1)CO2 [Cpd 88, 1-(3-phenoxy-benzyl)carbonyl-5′-aminomethyl-spiro[piperidine-4,3′-(2H)-benzo[b]furan]] | 26 nM
33 | Cc1cccc(CC(=O)N2CCC3(CC2)COc2ccc(CN)cc23)c1 [Cpd 89, 1-(3-methyl-benzyl)carbonyl-5′-aminomethyl-spiro[piperidine-4,3′-(2H)-benzo[b]furan]] | 1400 nM
34 | NCc1ccc2c(c1)C1(CCN(C(=O)Cc3ccc(F)cc3)CC1)CO2 [Cpd 90, 1-(4-fluoro-benzyl)carbonyl-5′-aminomethyl-spiro[piperidine-4,3′-(2H)-benzo[b]furan]] | 980 nM
35 | NCc1ccc2c(c1)C1(CCN(C(=O)Cc3ccc(Cl)cc3)CC1)CO2 [Cpd 91, 1-(4-chloro-benzyl)carbonyl-5′-aminomethyl-spiro[piperidine-4,3′-(2H)-benzo[b]furan]] | 480 nM
36 | NCc1ccc2c(c1)C1(CCN(C(=O)Cc3ccc(-c4ccccc4)cc3)CC1)CO2 [Cpd 92, 1-(4-phenyl-benzyl)carbonyl-5′-aminomethyl-spiro[piperidine-4,3′-(2H)-benzo[b]furan]] | 490 nM
37 | NCc1ccc2c(c1)C1(CCN(C(=O)Cc3ccc(Br)cc3)CC1)CO2 [Cpd 93, 1-(4-bromo-benzyl)carbonyl-5′-aminomethyl-spiro[piperidine-4,3′-(2H)-benzo[b]furan]] | 350 nM
38 | COc1ccc(CC(=O)N2CCC3(CC2)COc2ccc(CN)cc23)cc1 [Cpd 94, 1-(4-methoxy-benzyl)carbonyl-5′-aminomethyl-spiro[piperidine-4,3′-(2H)-benzo[b]furan]] | 240 nM
39 | NCc1ccc2c(c1)C1(CCN(C(=O)Cc3cccc(Br)c3)CC1)CO2 [Cpd 95, 1-(3-bromo-benzyl)carbonyl-5′-aminomethyl-spiro[piperidine-4,3′-(2H)-benzo[b]furan]] | 3200 nM
40 | NCc1ccc2c(c1)C1(CCN(C(=O)Cc3ccc(I)cc3)CC1)CO2 [Cpd 96, 1-(4-iodo-benzyl)carbonyl-5′-aminomethyl-spiro[piperidine-4,3′-(2H)-benzo[b]furan]] | 450 nM
